{"source": "patent US20190062362A1", "about": "“METHOD FOR OBTAINING SURFACTANT COMPOSITIONS MADE FROM ALKYL-L-GULURONAMIDES” (ÉCOLE NATIONALE SUPÉRIEURE DE CHIMIE, priority 2015, published 2019)", "experiment_in_all_cases": "Protocol A: agar deposit test, clarification zone", "format_in_all_cases": "cell-based", "key": {"Enterococcus faecium": {"tested_on": "Enterococcus faecium", "settings": "E. faecium; antibiotic disk", "protocol": "(§1) The culture medium used was a mixture of 21 g/L of Muller-Hinton broth and 10 g/L of agar in water. This mixture was stirred and then left to boil. Next, a step of autoclaving of this mixture, for 30 minutes, was desired in this embodiment so as to sterilize it before any manipulation. This culture medium was poured hot into Petri dishes and then left to cool.\n(§2) 5 mg of each modified sugar were dissolved in 1 mL of DMSO. Twofold serial dilution with DMSO was then performed using the stock solution, so as to obtain concentrations of 2.5 g/L, 1.25 g/L, 0.625 g/L and 0.3125 g/L.\n(§3) The bacterial strains used were Pseudomonas aeruginosa, Escherichia Coli, Enterococcus faecium and Staphylococcus aureus, and also the fungal strain Candida albicans. 10^6 bacteria were taken and then transferred into 0.9% NaCl solution. Each Petri dish, containing Muller-Hinton medium, was flooded with a different bacterial suspension.\n(§4) After allowing the bacterial suspensions to dry on the agar, 10 μL of each test solution, and at various concentrations, were deposited on the surface of the agar flooded with the bacterial suspension. 10 μL of DMSO were placed in each Petri dish as a negative control.\n(§5) The positive controls used were disks soaked with ampicillin for Escherichia coli and Enterococcus faecium, ceftazidime disks for Pseudomonas aeruginosa and vancomycin disks for Staphylococcus aureus.\n(§6) After drying, the Petri dishes were finally incubated at 37° C. in an oven, for 24 hours. The antibacterial activity was evaluated by measuring the clarification zone in millimeters around the point of deposition of the various test solutions."}, "Escherichia Coli": {"tested_on": "Escherichia Coli", "settings": "E. coli; for inhibitory activity on growth (in words): text summary of protocol A", "protocol": "as §1, §2, §3, §4, §5, §6"}, "Pseudomonas aeruginosa": {"tested_on": "Pseudomonas aeruginosa", "settings": "P. aeruginosa; for inhibitory activity on growth (in words): text summary of protocol A", "protocol": "as §1, §2, §3, §4, §5, §6"}, "Staphylococcus aureus": {"tested_on": "Staphylococcus aureus", "settings": "S. aureus", "protocol": "as §1, §2, §3, §4, §5, §6"}, "Candida albicans": {"tested_on": "Candida albicans", "settings": "C. albicans; text summary of protocol A", "protocol": "as §1, §2, §3\nAfter allowing the bacterial suspensions to dry on the agar, 10 μL of each test solution, and at various concentrations, were deposited on the surface of the agar flooded with the bacterial suspension. […]\nas §6"}}}
{"compound": "CC1(C)S[C@@H]2[C@H](NC(=O)[C@H](N)c3ccccc3)C(=O)N2[C@H]1C(=O)O", "note": "[Ampicillin, reference compound]", "values": [{"measurement": "clarification zone, positive control", "setting": "Enterococcus faecium", "result": 26, "unit": "mm"}, {"measurement": "clarification zone, positive control", "setting": "Escherichia Coli; antibiotic disk", "result": 22, "unit": "mm"}]}
{"compound": "CC(C)(O/N=C(\\C(=O)N[C@@H]1C(=O)N2C(C(=O)[O-])=C(C[n+]3ccccc3)CS[C@H]12)c1csc(N)n1)C(=O)O", "note": "[Ceftazidime, reference compound]", "values": [{"measurement": "clarification zone, positive control", "setting": "Pseudomonas aeruginosa; antibiotic disk", "result": 28, "unit": "mm"}]}
{"compound": "CN[C@H](CC(C)C)C(=O)N[C@H]1C(=O)N[C@@H](CC(N)=O)C(=O)N[C@H]2C(=O)N[C@H]3C(=O)N[C@H](C(=O)N[C@H](C(=O)O)c4cc(O)cc(O)c4-c4cc3ccc4O)[C@H](O)c3ccc(c(Cl)c3)Oc3cc2cc(c3O[C@@H]2O[C@H](CO)[C@@H](O)[C@H](O)[C@H]2O[C@H]2C[C@](C)(N)[C@H](O)[C@H](C)O2)Oc2ccc(cc2Cl)[C@H]1O", "note": "[Vancomycin, reference compound]", "values": [{"measurement": "clarification zone, positive control", "setting": "Staphylococcus aureus; antibiotic disk", "result": 19, "unit": "mm"}]}
{"compound": "N-(12 dodecyl)-n-butyl L-guluronamide", "values": [{"measurement": "inhibitory activity on growth (in words)", "setting": "Pseudomonas aeruginosa", "result": "neither the N-(12 dodecyl)-n-butyl L-guluronamide nor the N-(18 octadecyl)-n-butyl L-guluronamide (whether in furanose or pyranose form) showed any inhibitory activity"}, {"measurement": "inhibitory activity on growth (in words)", "setting": "Escherichia Coli", "result": "neither the N-(12 dodecyl)-n-butyl L-guluronamide nor the N-(18 octadecyl)-n-butyl L-guluronamide (whether in furanose or pyranose form) showed any inhibitory activity"}]}
{"compound": "N-(18 octadecyl)-n-butyl L-guluronamide", "values": [{"measurement": "inhibitory activity on growth (in words)", "setting": "Pseudomonas aeruginosa", "result": "neither the N-(12 dodecyl)-n-butyl L-guluronamide nor the N-(18 octadecyl)-n-butyl L-guluronamide (whether in furanose or pyranose form) showed any inhibitory activity"}, {"measurement": "inhibitory activity on growth (in words)", "setting": "Escherichia Coli", "result": "neither the N-(12 dodecyl)-n-butyl L-guluronamide nor the N-(18 octadecyl)-n-butyl L-guluronamide (whether in furanose or pyranose form) showed any inhibitory activity"}, {"measurement": "inhibitory effect (in words)", "setting": "Staphylococcus aureus; text summary of protocol A", "result": "no inhibitory effect"}, {"measurement": "inhibitory effect (in words)", "setting": "Candida albicans", "result": "no inhibitory effect"}]}
